Experiments:
Format in all cases: in vivo
Myzus persicae = experiment: Foliar application Myzus persicae / bell peppers (spray test); conditions: spray on infested bell pepper plants, AMS and/or RME each 1000 ppm in spray liquor where named, 6 days
Procedure: Foliar Application Myzus persicae/Bell Peppers
(§1) To produce a suitable active compound preparation, 1 part by weight of active compound is mixed with the stated amounts of solvent and emulsifier, and the concentrate is diluted with emulsifier-containing water to the desired concentration. For application with ammonium salts and penetrants (rapeseed oil methyl ester 500 EW), these ingredients are each added to the spray liquor in a concentration of 1000 ppm.
Bell pepper plants (Capsicum annuum) heavily infested by the green peach aphid (Myzus persicae) are treated by spraying with the active compound preparation of the desired concentration. After 6 days, the kill in % is determined. 100% means that all aphids have been killed; 0% means that no aphids have been killed.

Aphis gossypii = experiment: Foliar application Aphis gossypii / cotton (spray test); conditions: spray on infested cotton plants, 6 days
Procedure: Foliar Application Aphis gossypii/Cotton
as §1
Cotton plants (Gossypium hirsutum) heavily infested by the cotton aphid (Aphis gossypii) are treated by spraying with the active compound preparation of the desired concentration. After 6 days, the kill in % is determined 100% means that all aphids have been killed; 0% means that no aphids have been killed.

Bemisia tabaci = Bemisia tabaci (BEMITA spray treatment) on cotton leaf discs; conditions: 0.8 ppm active compound; spray on cotton leaf discs infested by whitefly larvae; 7 days
Procedure: Bemisia tabaci (BEMITA Spray Treatment)
To produce a suitable active compound preparation, 1 part by weight of active compound is mixed with the stated amounts of solvents and emulsifier, and the concentrate is diluted with emulsifier-containing water to the desired concentration.
Discs of cotton leaves (Gossypium hirsutum) infested by whitefly (Bemisia tabaci) larvae are sprayed with an active compound preparation of the desired concentration.
After 7 days, the effects in % is determined 100% means that all whiteflies have been killed; 0% means that none of the whiteflies have been killed.

[1] = 0.8 ppm active compound, AMS and/or RME each 1000 ppm in spray liquor where named

Row | Compound | Kill in % after 6d (Myzus persicae; 0.8 ppm active compound) [%] | Kill in % after 6d (Aphis gossypii; [1]) [%] | Kill in % after 6d (Myzus persicae; 4 ppm active compound) [%] | Kill in % after 6d (Aphis gossypii; 4 ppm active compound, RME 1000 ppm in spray liquor where named) [%] | Kill in % after 7d (Bemisia tabaci) [%]
1 | CN(Cc1ccc(Cl)nc1)C1=NC(=O)OC1 [I-1, 4-[[(6-chloro-3-pyridinyl)methyl]methylamino]-2(5H)-oxazolone] | 0 | 35 |  |  | 
2 | O=C1N=C(N(Cc2ccc(Cl)nc2)C2CC2)CO1 [I-6, 4-[[(6-chloro-3-pyridinyl)methyl]cyclopropylamino]-2(5H)-oxazolone] |  | 0 | 15 | 40 | 40

Reference: patent US20120004268A1, “INSECTICIDAL COMPOSITIONS COMPRISING CYCLIC CARBONYLAMIDINES” (BAYER CROPSCIENCE AG, priority 2010, published 2012)
